Test results published in ChEMBL document CHEMBL1153404, “Design and structural analysis of novel pharmacophores for potent and selective peroxisome proliferator-activated receptor gamma agonists” (J Med Chem, 2009).

Experiments:
[1] = target: T1, Peroxisome proliferator-activated receptor alpha (Homo sapiens, UniProt Q07869); test: Agonist activity at human PPARalpha receptor by cell based transactivation assay; format: functional
T1 sequence (Q07869 whole entry): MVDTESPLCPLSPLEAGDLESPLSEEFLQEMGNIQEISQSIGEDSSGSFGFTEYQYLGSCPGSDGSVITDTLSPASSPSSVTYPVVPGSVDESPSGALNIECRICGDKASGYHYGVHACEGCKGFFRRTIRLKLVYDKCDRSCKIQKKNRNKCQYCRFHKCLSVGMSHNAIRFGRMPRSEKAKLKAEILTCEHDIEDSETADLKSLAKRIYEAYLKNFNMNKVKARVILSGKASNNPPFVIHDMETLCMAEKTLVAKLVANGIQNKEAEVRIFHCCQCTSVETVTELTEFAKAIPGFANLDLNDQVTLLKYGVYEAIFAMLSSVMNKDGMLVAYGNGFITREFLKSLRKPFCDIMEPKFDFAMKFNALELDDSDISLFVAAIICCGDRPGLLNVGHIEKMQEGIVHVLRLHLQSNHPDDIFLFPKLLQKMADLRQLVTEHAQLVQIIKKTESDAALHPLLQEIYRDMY

[2] = target: T2, Peroxisome proliferator-activated receptor delta (Homo sapiens, UniProt Q03181); test: Agonist activity at human PPARdelta receptor by cell based transactivation assay
T2 sequence (Q03181 whole entry): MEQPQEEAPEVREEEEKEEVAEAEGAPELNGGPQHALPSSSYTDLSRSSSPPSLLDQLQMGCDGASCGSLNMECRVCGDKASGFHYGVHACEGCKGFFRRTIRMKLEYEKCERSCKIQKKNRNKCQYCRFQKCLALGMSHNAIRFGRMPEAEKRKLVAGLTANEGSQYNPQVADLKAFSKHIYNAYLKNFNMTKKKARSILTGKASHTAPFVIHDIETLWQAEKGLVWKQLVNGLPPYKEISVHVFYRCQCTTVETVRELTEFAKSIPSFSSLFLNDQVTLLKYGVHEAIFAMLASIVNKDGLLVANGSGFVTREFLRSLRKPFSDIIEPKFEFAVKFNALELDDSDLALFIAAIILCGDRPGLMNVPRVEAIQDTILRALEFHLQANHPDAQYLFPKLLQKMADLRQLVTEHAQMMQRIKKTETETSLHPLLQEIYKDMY

[3] = target: T3, Peroxisome proliferator-activated receptor gamma (Homo sapiens, UniProt P37231)
T3 sequence (P37231 whole entry): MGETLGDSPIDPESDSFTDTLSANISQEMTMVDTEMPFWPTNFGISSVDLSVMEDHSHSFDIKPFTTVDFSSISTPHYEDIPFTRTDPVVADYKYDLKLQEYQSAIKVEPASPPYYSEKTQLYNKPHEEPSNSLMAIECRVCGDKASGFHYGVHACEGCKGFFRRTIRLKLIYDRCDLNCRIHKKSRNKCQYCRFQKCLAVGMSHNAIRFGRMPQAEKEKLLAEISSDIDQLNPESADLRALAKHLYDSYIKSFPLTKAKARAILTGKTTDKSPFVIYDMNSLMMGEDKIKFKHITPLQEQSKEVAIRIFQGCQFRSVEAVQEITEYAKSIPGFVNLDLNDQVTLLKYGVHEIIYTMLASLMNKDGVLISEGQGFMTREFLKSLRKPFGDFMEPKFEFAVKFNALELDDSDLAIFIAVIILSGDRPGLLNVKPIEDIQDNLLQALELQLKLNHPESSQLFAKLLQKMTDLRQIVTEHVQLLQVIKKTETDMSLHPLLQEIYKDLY
Description: Agonist activity at human PPARgamma receptor by cell based transactivation assay

Homo sapiens [4] = organism: Homo sapiens; test: Selectivity of EC50 for human PPARalpha receptor over EC50 for human PPARgamma receptor
Homo sapiens [5] = organism: Homo sapiens; test: Selectivity of EC50 for human PPARalpha receptor over EC50 for human PPARdelta receptor
Homo sapiens [6] = organism: Homo sapiens; test: Selectivity of EC50 for human PPARgamma receptor over EC50 for human PPARalpha receptor

SMILES	EC50 [1] [nM]	EC50 [2] [µM]	EC50 [3] [nM]	fold change (FC) (Homo sapiens [4])	fold change (FC) (Homo sapiens [5])	fold change (FC) (Homo sapiens [6])	Activity (Homo sapiens [6])
CCCc1c(OCCCn2ccc3cc(OC(C)(C)C(=O)O)ccc32)ccc2cc(C(=O)c3ccoc3)ccc12	130	> 10	430				
CCCc1cc(C(=O)c2ccc(-c3ccccc3)cc2)ccc1OCCCN1CCCc2cc(OC(C)(C)C(=O)O)ccc21	> 10000	> 10	100				
CCCc1cc(C(=O)c2ccc(-c3ccccc3)cc2)ccc1OCCCN1CCCc2c(OC(C)(C)C(=O)O)cccc21	3990	> 10	50				
CCCc1cc(C(=O)c2ccc3ccccc3c2)ccc1OCCCn1ccc2c(OC(C)(C)C(=O)O)cccc21	30	> 10	2800	> 100	> 100		
CCCc1c(OCCCn2ccc3cc(OC(C)(C)C(=O)O)ccc32)ccc2c(C(=O)c3ccccc3)cccc12	200	> 10	3500				
CCCc1c(OCCCn2ccc3cc(OC(C)(C)C(=O)O)ccc32)ccc2cc(C(=O)c3ccncc3)ccc12	> 10000	> 10	2070				
CCCc1cc(C(=O)c2ccc(F)cc2)ccc1OCCCn1ccc2cc(OC(C)(C)C(=O)O)ccc21	130	> 10	900				
CCCc1cc(C(=O)c2ccc3ccccc3c2)ccc1OCCCn1ccc2cc(OC(C)(C)C(=O)O)ccc21	30	> 10	370				
CCCc1c(OCCCN2CCCc3cc(OC(C)(C)C(=O)O)ccc32)ccc2cc(C(=O)c3ccccc3)ccc12	240	> 10	540				
CCCc1c(OCCCn2ccc3cc(OC(C)(C)C(=O)O)ccc32)ccc2cc(C(=O)c3ccccc3)ccc12		> 10					
CCCc1cc(C(=O)c2ccc(-c3ccccc3)cc2)ccc1OCCCn1ccc2c(OC(C)(C)C(=O)O)cccc21	4070	> 10	300	> 300	> 300	15	
CCCc1cc(C(=O)c2ccccc2)ccc1OCCCn1ccc2c(OC(C)(C)C(=O)O)cccc21	30	> 10	> 10000				
CCCc1cc(C(=O)c2ccc(-c3ccccc3)cc2)ccc1OCCCn1ccc2cc(OC(C)(C)C(=O)O)ccc21	1920	> 10	120			15	
CCCc1c(OCCCn2ccc3cc(OC(C)(C)C(=O)O)ccc32)ccc2cc(C(=O)c3ccc(F)cc3)ccc12	> 10000	> 10	2120				
CCCc1cc(C(=O)c2ccccc2)ccc1OCCCn1ccc2cc(OC(C)(C)C(=O)O)ccc21	40	5.27	420				
CCCc1c(OCCCn2ccc3cc(OC(C)(C)C(=O)O)ccc32)ccc2cc(C(=O)c3ccc(OC)cc3)ccc12	130	> 10	510				
CCCc1c(OCCCn2ccc3cc(OC(C)(C)C(=O)O)ccc32)ccc2cc(Cc3ccccc3)ccc12	> 10000	> 10	> 10000				
CCCc1c(OCCCN2CCCc3c(OC(C)(C)C(=O)O)cccc32)ccc2cc(C(=O)c3ccccc3)ccc12	120	> 10	100				
CN(CCOc1ccc(CC2SC(=O)NC2=O)cc1)c1ccccn1 (stereo not given)							80
CCCc1cc(C(=O)c2ccc(OC)cc2)ccc1OCCCn1ccc2cc(OC(C)(C)C(=O)O)ccc21	50	4.45	470				
CCCc1c(OCCCn2ccc3cc(OC(C)(C)C(=O)O)ccc32)ccc2cc(C(C)=O)ccc12	> 10000	> 10	1070				
